In ChEMBL document CHEMBL1201862, “PubChem BioAssay data set” (2004) one finds AC50, EC50 and IC50 data, which are given here for twelve compounds.

Experiment [1] in a line: growth inhibition of yeast DHODH-expressing 3D7 parasites – SYBR Green, dry powder samples, dose response (AID 1159570).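 Also: parasite growth measured after 72 hours of compound exposure.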 The experiment is classed as functional, cell-based.
Experiment [2] in a line: toxicity to human HepG2 hepatoma cells – cell-based, plate reader, dry powder samples, cytotoxicity control, dose response (AID 1159569).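 Also: inhibitor potency with signal falling toward the positive control level.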 The experiment is classed as functional.
Experiment [3] is described as follows: P. falciparum Dd2 growth inhibitors, dose response, SYBR Green, cherry-picked samples (AID 1159567). The experiment is classed as functional, cell-based.
A short description of experiment [4]: Dd2 malaria parasite growth inhibition potency – SYBR Green, dry powder samples, dose response (AID 1159566).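 Also: potency for growth inhibition with lower SYBR green DNA signal.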 The experiment is classed as functional, cell-based.
Experiment [5] is described as follows: growth inhibition of PfATP4-mutant resistant parasites – NITD609-resistant line, SYBR Green, dry powder, dose response (AID 1159571).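 Also: parasites synchronized at ring stage by sorbitol before testing.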 The experiment is classed as functional, cell-based.
Experiment [6] addresses SWI/SNF-related matrix-associated actin-dependent regulator of chromatin subfamily A member 2 (Homo sapiens, UniProt P51531). The experiment can be described thus: Luminescence-based cell-based high throughput dose response assay to identify activators of the function of SWI/SNF related, matrix associated, actin dependent regulator of chromatin, subfamily a, member 2 (SMARCA2, BRM). The experiment is classed as functional.

Experiment [7] is described as follows: Counterscreen for activators of the function of SWI/SNF related, matrix associated, actin dependent regulator of chromatin, subfamily a, member 2 (SMARCA2, BRM): Luminescence-based cell-based high throughput dose response assay to identify non-selective compounds using the VP16 reporter assay. The experiment is classed as functional.
Experiment [8] is described as follows: reduced cellular PGC1a acetyl-lysine signal – cell-based, cherry-picked samples, dose response (AID 720514).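 Also: potency may reflect raised or lowered acetylation signal.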 The experiment is classed as functional.
Experiment [9] in a line: blockers of HIV-1 envelope-mediated cell-cell fusion – cherry-pick, dose response (AID 652057). The experiment is classed as functional, cell-based.
A short description of experiment [10]: blockers of HIV-1 ZM109 envelope-driven cell-cell fusion – HeLa effector, CEM target cells, luciferase, cherry-pick, dose response (AID 652058).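 Also: luciferase signal from HIV-1 Env mediated cell-cell fusion of effector and target cells.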 The experiment is classed as functional, cell-based.
A short description of experiment [11]: HIV-1 AD8 envelope cell-cell fusion blockers – cherry-pick, dose response (AID 652062).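 Also: luciferase signal from cell-cell fusion driven by HIV-1 clade B AD8 Env; potency is for inhibitors of fusion seen as a drop in luminescence.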 The experiment is classed as functional, cell-based.
Another experiment has as its target Nonstructural protein 1 (Influenza A virus, UniProt Q194T2). The experiment is classed as functional, Influenza A virus (A/California/07/2009(H1N1)).
The nature of experiment [12]: A cytotoxicity screen of small molecule inhibitors of the PhoP region in Salmonella typhi identified in the primary screen. [Related pubchem assays: 1850, 1864, 1985 ]. The experiment is classed as functional.

Usually AC50 stands for the concentration at which the activity in the assay is half-maximal. By EC50 is commonly meant the concentration that produces a half-maximal response. A word on the IC50: it is the concentration at which inhibition is half-maximal.

Active and inactive are the calls of the source.

SWI/SNF-related matrix-associated actin-dependent regulator of chromatin subfamily A member 2, sequence (P51531 whole entry): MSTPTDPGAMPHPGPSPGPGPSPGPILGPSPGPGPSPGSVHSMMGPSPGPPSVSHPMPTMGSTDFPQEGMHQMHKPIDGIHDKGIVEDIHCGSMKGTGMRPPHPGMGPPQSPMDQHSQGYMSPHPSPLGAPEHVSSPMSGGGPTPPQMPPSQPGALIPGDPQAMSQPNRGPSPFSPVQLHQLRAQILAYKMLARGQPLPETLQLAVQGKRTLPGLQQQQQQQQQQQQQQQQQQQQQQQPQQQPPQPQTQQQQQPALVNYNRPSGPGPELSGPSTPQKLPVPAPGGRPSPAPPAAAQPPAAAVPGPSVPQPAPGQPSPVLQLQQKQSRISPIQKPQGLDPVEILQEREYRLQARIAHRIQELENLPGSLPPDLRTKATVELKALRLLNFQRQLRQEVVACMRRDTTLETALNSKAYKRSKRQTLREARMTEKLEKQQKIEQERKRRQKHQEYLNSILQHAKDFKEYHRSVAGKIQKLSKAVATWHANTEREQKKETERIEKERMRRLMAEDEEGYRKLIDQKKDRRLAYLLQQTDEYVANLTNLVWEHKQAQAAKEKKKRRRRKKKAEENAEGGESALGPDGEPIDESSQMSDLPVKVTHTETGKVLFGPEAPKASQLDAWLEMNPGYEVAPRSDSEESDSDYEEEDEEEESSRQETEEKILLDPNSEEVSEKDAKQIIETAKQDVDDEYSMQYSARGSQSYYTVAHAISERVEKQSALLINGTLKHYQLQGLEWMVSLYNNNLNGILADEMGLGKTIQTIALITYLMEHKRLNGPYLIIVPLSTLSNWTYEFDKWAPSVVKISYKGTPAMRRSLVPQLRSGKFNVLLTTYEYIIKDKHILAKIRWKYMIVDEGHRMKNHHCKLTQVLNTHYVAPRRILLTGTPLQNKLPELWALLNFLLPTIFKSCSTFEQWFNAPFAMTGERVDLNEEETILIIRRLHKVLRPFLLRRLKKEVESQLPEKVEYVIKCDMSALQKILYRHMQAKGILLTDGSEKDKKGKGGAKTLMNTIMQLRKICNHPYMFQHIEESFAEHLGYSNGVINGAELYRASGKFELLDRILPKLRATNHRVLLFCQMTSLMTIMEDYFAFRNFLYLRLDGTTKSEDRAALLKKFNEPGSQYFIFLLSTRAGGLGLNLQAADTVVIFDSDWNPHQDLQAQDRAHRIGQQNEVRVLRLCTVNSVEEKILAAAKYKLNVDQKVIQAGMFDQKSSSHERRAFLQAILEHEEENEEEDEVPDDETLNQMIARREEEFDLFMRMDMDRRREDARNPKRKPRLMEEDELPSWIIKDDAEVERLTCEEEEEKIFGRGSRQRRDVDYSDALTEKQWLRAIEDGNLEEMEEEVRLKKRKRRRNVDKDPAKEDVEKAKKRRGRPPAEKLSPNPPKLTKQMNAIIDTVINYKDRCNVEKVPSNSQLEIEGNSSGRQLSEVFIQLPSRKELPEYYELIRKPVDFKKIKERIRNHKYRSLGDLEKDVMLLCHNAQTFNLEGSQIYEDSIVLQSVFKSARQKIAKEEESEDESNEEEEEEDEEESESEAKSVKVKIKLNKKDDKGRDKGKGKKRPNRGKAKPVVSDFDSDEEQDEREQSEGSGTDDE
Nonstructural protein 1, sequence (Q194T2 whole entry): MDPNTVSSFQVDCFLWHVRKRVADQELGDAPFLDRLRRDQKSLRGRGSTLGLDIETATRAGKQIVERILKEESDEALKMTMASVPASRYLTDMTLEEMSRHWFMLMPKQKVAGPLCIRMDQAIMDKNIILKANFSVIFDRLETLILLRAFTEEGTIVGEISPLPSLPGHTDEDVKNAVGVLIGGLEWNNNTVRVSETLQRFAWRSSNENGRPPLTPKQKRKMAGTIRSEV

Turning to `C/C=C/c1ccc2c(c1)[C@H]1[C@H](CCN1C(=O)c1cccc(F)c1)[C@H](CO)N2`, the AC50 in [1] was 1460 nM (active); in experiment [2], > 100000 nM (inactive); in [3] it was 1540 nM (active); in experiment [4], 1050 nM (active); in [5], 1640 nM (active).
The corresponding values for `COc1ccc(S(=O)(=O)N(C)C[C@@H]2Oc3cc(-c4ccccc4OC)ccc3S(=O)(=O)N([C@H](C)CO)C[C@H]2C)cc1` are 894 nM (active), > 100000 nM (inactive), 1120 nM (active), 653 nM (active) and 766 nM (active).
In the case of `C[C@@H]1CN([C@@H](C)CO)S(=O)(=O)c2ccc(/C=C/c3ccccc3)cc2O[C@H]1CN(C)Cc1cccnc1`, the AC50 was 1600 nM (active) in experiment [1]; 56200 nM (active) in [2]; 1930 nM (active) in [3]; 1630 nM (active) in experiment [4]; 2150 nM (active) in experiment [5].
For `C=C1C(=O)OC2C1CCC(C)C1C=CC(=O)C12C` (configuration not stated), the EC50 in experiment [6] and in experiment [7] was > 91200 nM (inactive) throughout.
As for `COc1ccc(-c2cnc3c(c2)C(=O)N([C@H](C)CO)C[C@@H](C)[C@@H](CN(C)C(=O)Nc2c(C)noc2C)O3)cc1`, the AC50 in [8] was 12200 nM (active).
Consider `CC(C)(C)[S@@+]([O-])N1Cc2cc(C(=O)NCCN3CCCCC3)nc(-c3cccc(-c4ccc(C#N)cc4)c3)c2[C@H]1CCO`, for which the AC50 in [1] is 3540 nM (active); in [2] it was 63200 nM (active); in [3] it was 2790 nM (active); in experiment [4] it was 2370 nM (active); in [5] it was 2900 nM (active).
Taken in the same sequence, the figures for `OC[C@@H]1CC[C@@H]2O[C@H](CCc3ccc(-c4ccccc4)cc3)[C@H](n3cc(-c4ccccc4)nn3)C[C@@H]2O1` were 1380 nM (active), > 100000 nM (inactive), 1340 nM (active), 555 nM (active) and 885 nM (active).
`COCn1c(COc2ccccc2)nc2ccccc21`: the EC50 in experiment [6] and in experiment [7] was > 91200 nM (inactive) throughout.
Regarding `COc1ccc(CNC(=O)N(C)C[C@@H]2OCc3ccccc3-c3c(n(C)c4ccccc34)C(=O)N([C@H](C)CO)C[C@@H]2C)cc1`, the AC50 in [9], in experiment [10] and in experiment [11] was < 235 nM (active) in each case.
Turning to `Cc1[nH]n(-c2ccccc2)c(=O)c1N=Nc1ccc(F)cc1`, the IC50 on Nonstructural protein 1 is 84700 nM (active).
Take `CC1CCC[C@H](O)CCCCCc2cc(O)cc(O)c2C(=O)O1` (some centres not stated): the EC50 in [12] was > 50000 nM (active). In addition, the AC50 in experiment [8] was 35900 nM (active).
`CCCCNc1c([N+](=O)[O-])ccc2c1=NC1(CCCCC1)[N+]=2[O-]`: the IC50 on Nonstructural protein 1 is 43800 nM (active).
